According to paper PMC5311937, “In Vitro Characterization and Concerted Function of Three Core Enzymes of a Glycyl Radical Enzyme - Associated Bacterial Microcompartment” (Scientific Reports, 2017):

Assays:
[1] = molecular target: T1, AldDH (acylating aldehyde dehydrogenase, PduP) (Rhodopseudomonas palustris, UniProt Q21A49); experiment: NAD+ reduction monitored at […] nm; type: biochemical; conditions: 5 mM NAD+, 0.5 mM CoA, 200 mM MOPS/KOH pH 7.5; kcat per tetrameric enzyme; read-out: apparent KM
T1 construct: gene RPC_1174; N-terminal encapsulation peptide kept

[2] = molecular target: acylating aldehyde dehydrogenase (AldDH) from Rhodopseudomonas palustris BisB18, Strep-tagged (Rhodopseudomonas palustris BisB18); experiment: SEC; gel filtration on HiLoad 16/600 Superdex 200 pg, 20 mM MOPS/KOH pH 7.5, 50 mM KCl
[3] = molecular target: acylating aldehyde dehydrogenase (AldDH) from Rhodopseudomonas palustris BisB18, Strep-tagged (Rhodopseudomonas palustris BisB18); experiment: crystal structure; AldDH co-crystallised with propionyl-CoA at pH 8.1, space group P 2_(1), 1.9 Å; CoA and S-propionylcysteine in the active sites
[4] = molecular target: acylating aldehyde dehydrogenase (AldDH) from Rhodopseudomonas palustris BisB18, Strep-tagged (Rhodopseudomonas palustris BisB18); experiment: crystal structure; AldDH co-crystallised with propionyl-CoA at pH 4.8, space group P 1, 2.5 Å
[5] = molecular target: acylating aldehyde dehydrogenase (AldDH) from Rhodopseudomonas palustris BisB18, Strep-tagged (Rhodopseudomonas palustris BisB18); experiment: crystal structure; AldDH co-crystallised with NAD+ at pH 4.8, space group P2_(1), 2.3 Å, twinned
[6] = molecular target: T1, AldDH (acylating aldehyde dehydrogenase, PduP); experiment: X-ray crystal structure, […] Å; type: binding; conditions: active site; propionyl-CoA or CoA fitted; pH 4.8; also in one site of 5JFN, where Cys330 is S-propionylated (covalent)
[7] = molecular target: T1, AldDH (acylating aldehyde dehydrogenase, PduP); experiment: X-ray crystal structure, […] Å; type: binding; conditions: active site, acylated enzyme (Cys330 S-propionylated from propionyl-CoA); crystals at pH 8.1
[8] = molecular target: T1, AldDH (acylating aldehyde dehydrogenase, PduP); experiment: X-ray crystal structure, […] Å; type: binding; conditions: active site; pH 4.8, 5 mM NAD+

T1 sequence (Q21A49 entry or part of it): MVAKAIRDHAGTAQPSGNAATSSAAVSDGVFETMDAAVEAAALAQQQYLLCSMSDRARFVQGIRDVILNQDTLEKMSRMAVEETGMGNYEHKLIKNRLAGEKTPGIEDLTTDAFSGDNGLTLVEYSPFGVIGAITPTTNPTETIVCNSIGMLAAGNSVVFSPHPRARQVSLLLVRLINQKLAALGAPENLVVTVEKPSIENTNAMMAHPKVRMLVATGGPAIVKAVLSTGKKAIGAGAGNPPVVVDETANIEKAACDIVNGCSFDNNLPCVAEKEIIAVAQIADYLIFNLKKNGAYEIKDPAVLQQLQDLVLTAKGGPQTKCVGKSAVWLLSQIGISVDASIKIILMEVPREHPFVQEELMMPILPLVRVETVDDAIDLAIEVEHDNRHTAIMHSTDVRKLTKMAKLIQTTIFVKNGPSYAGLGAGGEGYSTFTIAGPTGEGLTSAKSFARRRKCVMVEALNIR

## CCC=O [propionaldehyde]
[1]
  Km: 1200 ± 170 µM

## acylating aldehyde dehydrogenase (AldDH) from Rhodopseudomonas palustris BisB18, Strep-tagged (enzyme)
[2]
  stoichiometry N: 4
[3]
  stoichiometry N: 4
[4]
  stoichiometry N: 4
[5]
  stoichiometry N: 4

## CCC(=O)SCCNC(=O)CCNC(=O)[C@H](O)C(C)(C)COP(=O)(O)OP(=O)(O)OC[C@H]1O[C@@H](n2cnc3c(N)ncnc32)[C@H](O)[C@@H]1OP(=O)(O)O [propionyl-CoA]
[6]
  X-ray crystal structure, 2.52 Å: we found electron density that allowed the fitting of either propionyl-CoA or CoA

## CC(C)(COP(=O)(O)OP(=O)(O)OC[C@H]1O[C@@H](n2cnc3c(N)ncnc32)[C@H](O)[C@@H]1OP(=O)(O)O)[C@@H](O)C(=O)NCCC(=O)NCCS [CoA]
[7]
  X-ray crystal structure, 1.90 Å: In three of the four active sites of the tetramer we also found coenzyme A bound

## NC(=O)c1ccc[n+]([C@@H]2O[C@H](COP(=O)(O)OP(=O)(O)OC[C@H]3O[C@@H](n4cnc5c(N)ncnc54)[C@H](O)[C@@H]3O)[C@@H](O)[C@H]2O)c1 [NAD^+]
[8]
  X-ray crystal structure, 2.30 Å: Electron density in the active sites allowed the fitting of NAD^+
